For 34 compounds, IC50 results are on record in patent US11236086B2, “Substituted pyrrolopyridines as inhibitors of activin receptor-like kinase” (BLUEPRINT MEDICINES CORPORATION, priority 2017, dated 2022).

Assay [1] addresses T1, ALK2R206H (mutant ALK2, N-terminally tagged with GST) (Homo sapiens, UniProt Q04771, R206H).
T1 construct: purchased Carna Bioscience or ThermoFisher 09-148 or PV6232
T1 sequence (Q04771 21-509 R206H): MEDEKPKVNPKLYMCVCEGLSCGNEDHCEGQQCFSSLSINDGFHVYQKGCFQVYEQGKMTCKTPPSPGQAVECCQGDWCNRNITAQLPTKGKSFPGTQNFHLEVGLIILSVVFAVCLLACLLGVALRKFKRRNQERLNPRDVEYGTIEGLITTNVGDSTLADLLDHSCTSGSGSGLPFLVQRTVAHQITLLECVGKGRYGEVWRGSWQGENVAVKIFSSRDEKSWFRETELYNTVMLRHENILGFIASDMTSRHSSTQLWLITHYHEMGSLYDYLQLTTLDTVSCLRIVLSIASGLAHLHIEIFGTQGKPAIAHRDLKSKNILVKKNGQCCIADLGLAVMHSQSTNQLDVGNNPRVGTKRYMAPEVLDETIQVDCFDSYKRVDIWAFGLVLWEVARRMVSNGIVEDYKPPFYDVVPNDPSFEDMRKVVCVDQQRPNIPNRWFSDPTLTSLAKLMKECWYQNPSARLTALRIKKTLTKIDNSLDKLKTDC
As to the kind of experiment: ALK binding assay (LANTHASCREEN TR-FRET competitive binding, displacement of Kinase Tracer 178). Conditions: read-out: Binding Assay (IC50 class). As for the experimental part:
Example 10 ALK Binding Assays
Binding assays were conducted using the LANTHASCREEN® technology (ThermoFisher Scientific). LANTHASCREEN® is a competitive binding, displacement assay where the assumed steady state occupancy of the binding site is measured using a time-resolved, fluorescence energy transfer (TR-FRET) readout between a fluorescent tracer and Europium (Eu)-tagged antibody specific for the kinase or expression tag (e.g., GST) of interest. Displacement of the tracer by a compound of the disclosure reduces, and is directly proportional to, the TR-FRET between the tracer and the antibody. Tracer was used at a concentration equal to or near to its Kd for the kinase. The Eu-tagged antibody was typically used in excess to ensure sampling of all competent protein capable of binding the tracer.
For these assays, a mutant ALK2 was used that was N-terminally tagged with GST (ALK2R206H Carna Bioscience (09-148) or ALK2R206H ThermoFisher (PV6232)); a Eu-tagged anti-GST antibody (ThermoFisher) and Kinase Tracer 178 (ThermoFisher).
In all cases, the kinase (2-5 nM) was mixed with Eu-tagged antibody (4-10 nM) mix and tracer (50 nM) were incubated with test compound titrations prepared in 100% DMSO (1% DMSO final) for 30 minutes at room temperature. All reagents and compounds were dissolved in Kinase Buffer A (ThermoFisher) to achieve the final concentration. The plates were read on a PerkinElmer EnVision® multilabel plate reader or a BioTek Synergy Neo plate reader, and the assay signal was represented as a ratio of the TR-FRET emission (λex 330 nm, λ^em […] and λ^em 665 nm). This readout was normalized to 0% and 100% inhibited control wells, plotted against inhibitor concentration, and fitted to a 4-parameter log dose response curve.
The results of this assay are shown in Table 3 in the column labelled “Binding Assay” wherein “A” represents an IC50 of less than or equal to 10 nM; “B” represents an IC50 of greater than 10 nM and less than or equal to 50 nM; and “C” represents an IC50 of greater than 50 nM. Blank values in the table indicate that the particular compound was not tested in this assay.

Another assay concerns the target T2, human ALK2 R206H (Homo sapiens, UniProt Q04771, R206H).
T2 construct: expressed in transfected cells; host or cells: HEK293 (ATCC CRL1573), lentivirus transduction, blasticidin selection
T2 sequence (Q04771 21-509 R206H): T1 sequence (Q04771 21-509 R206H)
As to the kind of experiment: Cell-based ALK2-R206H cell activity assay (Smad1-Ser463/Ser465 phosphorylation by AlphaLISA in HEK293-ALK2-R206H cells). Conditions: phospho-Smad1 AlphaLISA, read-out: Cell Line (Cell Assay, IC50 class). As for the experimental part:
Example 11. Cell-Based ALK2-R206H Cell Activity Assay
A HEK293 (ATCC, Cat No. CRL1573) based stable cell line expressing human ALK2 R206H cDNA (synthesized by GeneScript, Piscataway, N.J.) and a FLAG tag at the C-terminus was generated by lentivirus transduction and subsequent blasticidin (Life Technologies, Cat No. A1113902) selection at 10 μg/ml for >2 wks. This cell line was named HEK293-ALK2-R206H.
B. Measurement of Smad1-Ser463/Ser465 Phosphorylation by AlphaLISA
HEK293-ALK2-R206H cells were grown, harvested, and then resuspended in serum-free, phenol red-free DMEM high glucose media (Life Technologies, Cat No. 31053). The media also contained 50 units/ml penicillin and 50 μg/ml streptomycin (Life Technologies, Cat. No. 15070-063). HEK293-ALK2-R206H cells were then plated in white opaque 384-wells microplates (2×10^4/well) (OptiPlate-384, PerkinElmer, Waltham, Mass., Cat No. 6007299) overnight (>16h) at 37° C. 5% CO2 for use in the assay.
Test compounds were first diluted to 4 mM or 0.4 mM and then serially diluted 3-fold into 10 different concentrations using DMSO. Each concentration of compound was further diluted 40-fold with phenol red-free DMEM (Life Technologies, Cat No. 31053). 2 μl of the diluted compounds were then dispensed into the HEK293-ALK2-R206H cell-containing wells of the microplates in duplicates. In this way, each compound was tested in 10 doses (3-fold serial dilution with the top concentration being 10 μM or 1 μM). Liquid handling was achieved using a Bravo Automated Liquid Handling Platform (Agilent Technologies). DMSO without compound was used as a negative control. The positive control was 1 μM LDN193189, a known bone morphogenetic protein (BMP inhibitor).
After 2-3 hours of incubation with test compound or control, the cells were lysed and signal was developed using ALPHASCREEN® SUREFIRE® SMAD1 (p-Ser463/465) cellular kinase assay kit (PerkinElmer, Cat No. TGRSM1S10K) following the manufacturer's recommended protocol. The microplates were read using Perkin Elmer ENVISION® plate reader (emission […]). The signal reflected the level of phospho-Ser/463/465-Smad1 in the lysate. The raw data were plotted using the DMSO negative and LDN193189 positive controls as the 0% and 100% inhibition, respectively. The 10-point dose response curve was used to calculate the IC50 values.
The results of this assay are shown in Table 3 in the column labeled “Cell Assay” wherein “A” represents an IC50 of less than or equal to 100 nM; “B” an IC50 of greater than 100 nM and less than or equal to 500 nM; “C” an IC50 of greater than 500 nM. Blank values in the table indicate that the particular compound was not tested in this assay.

Some results are limits rather than exact numbers.

On to `CC#Cc1c(-c2cn(C)c(C)n2)[nH]c2nccc(N3CCN(C(=O)OC4COC4)CC3)c12` [Compound 347], for which the 50% inhibitory concentration (IC50) was not above 0.01 µM in assay [1] and not above 0.1 µM at human ALK2 R206H. On to `CCN1CCN(c2ccc(-c3cc4c(N5CCN(C(=O)C6CCC6)CC5)ccnc4[nH]3)cc2)CC1` [Compound 439], for which the figures for the 50% inhibitory concentration (IC50) (in assay [1]; on human ALK2 R206H) were not above 0.01 µM and not above 0.1 µM, respectively.

`O=C(OC1COC1)N1CCN(c2ccnc3[nH]c(-c4cn([C@H]5CCOC5)cn4)cc23)CC1` [Compound 359]: the IC50 in assay [1] was not above 0.01 µM; on human ALK2 R206H, not above 0.1 µM. As to `O=C(c1ccc(-c2cc3c(N4CCN(C(=O)C5CC5)CC4)ccnc3[nH]2)cc1)N1CCC1` [Compound 324], the figures for the 50% inhibitory concentration (IC50) (in assay [1]; at human ALK2 R206H) were not above 0.01 µM and 0.1 to 0.5 µM, respectively.

With `Cn1cc(-c2cc3c(N4CCN(C(=O)OC5CCC5(F)F)CC4)ccnc3[nH]2)cn1` (stereo not drawn) [Compound 262], the IC50 in assay [1] was not above 0.01 µM; on human ALK2 R206H, not above 0.1 µM.

For the compound `O=C(OC1COC1)N1CCN(c2ccnc3[nH]c(-c4cnn(C(F)F)c4)c(Cl)c23)CC1` [Compound 407], the 50% inhibitory concentration (IC50) in assay [1] is not above 0.01 µM; at human ALK2 R206H, not above 0.1 µM. The matching figures for `Cn1cc(-c2cc3c(N4CCN(C(=O)O[C@@H]5CCC5(F)F)CC4)ccnc3[nH]2)cn1` [Compound 263]: not above 0.01 µM and not above 0.1 µM.

On to `Cc1c(-c2cnn(C)c2)[nH]c2nccc(N3CCN(C(=O)OC4COC4)CC3)c12` [Compound 148], for which the IC50 in assay [1] was not above 0.01 µM; on human ALK2 R206H it was 0.1 to 0.5 µM. The matching figures for `O=C(OC1COC1)N1CCN(c2ccnc3[nH]c(-c4nc5c(s4)CSCC5)cc23)CC1` [Compound 417]: not above 0.01 µM and not above 0.1 µM. For `Cn1cnc(-c2[nH]c3nccc(N4CCN(C(=O)OC5CC5)CC4)c3c2C#N)c1` [Compound 130] the same measures were not above 0.01 µM and not above 0.1 µM. The matching figures for `Cc1nc(-c2[nH]c3nccc(N4CCN(C(=O)OC5CCC5)CC4)c3c2C#N)cn1C` [Compound 284]: not above 0.01 µM and not above 0.1 µM.

For `Cn1cnc(-c2cc3c(N4CCN(C(=O)O[C@H]5CCC5(F)F)CC4)ccnc3[nH]2)c1` [Compound 265], the 50% inhibitory concentration (IC50) in assay [1] was not above 0.01 µM; on human ALK2 R206H it was not above 0.1 µM.

For the compound `Cn1ncc(-c2[nH]c3nccc(N4CCN(C(=O)OC5COC5)CC4)c3c2C#N)n1` [Compound 215], the 50% inhibitory concentration (IC50) was not above 0.01 µM in assay [1] and 0.1 to 0.5 µM on human ALK2 R206H. `CCN1CCN(c2ccc(-c3cc4c(N5CCN(C(=O)C6CC6)CC5)ccnc4[nH]3)c(OC(F)(F)F)c2)CC1` [Compound 477]: the IC50 in assay [1] was not above 0.01 µM; on human ALK2 R206H it was not above 0.1 µM. For `Cn1cc(-c2cc3c(N4CCN(C(=O)O[C@H]5C[C@H](C#N)C5)CC4)ccnc3[nH]2)cn1` [Compound 202] the same measures were not above 0.01 µM and not above 0.1 µM. In the case of `Cn1cnc(-c2[nH]c3nccc(N4CCN(C(=O)OC5COC5)CC4)c3c2Cl)c1` [Compound 274], the results for the 50% inhibitory concentration (IC50) (in assay [1]; on human ALK2 R206H) were not above 0.01 µM and not above 0.1 µM, respectively. Regarding `Cc1nc(-c2[nH]c3nccc(N4CCN(C(=O)OC5CC5)CC4)c3c2C#N)cn1C` [Compound 201], the IC50 in assay [1] was not above 0.01 µM; at human ALK2 R206H it was not above 0.1 µM. For `Cn1cc(-c2[nH]c3nccc(N4CCN(C(=O)O[C@H]5CCOC5)CC4)c3c2C#N)cn1` [Compound 289] the same measures were not above 0.01 µM and not above 0.1 µM. The matching figures for `O=C(C1CC1)N1CCN(c2ccnc3[nH]c(-c4cnn(C5COC5)c4)cc23)CC1` [Compound 133]: not above 0.01 µM and 0.1 to 0.5 µM. Turning to `CC(C)OC(=O)N1CCN(c2ccnc3[nH]c(-c4cnn(C)c4)c(Cl)c23)CC1` [Compound 186], the IC50 is not above 0.01 µM in assay [1] and 0.1 to 0.5 µM at human ALK2 R206H.

For the compound `Cn1cnc(-c2cc3c(N4CCN(C(=O)OC5CC(F)(F)C5)CC4)ccnc3[nH]2)c1` [Compound 269], the results for the IC50 (in assay [1]; at human ALK2 R206H) were not above 0.01 µM and not above 0.1 µM, respectively. In the case of `Cc1c(-c2cc3c(N4CCN(C(=O)OC5COC5)CC4)ccnc3[nH]2)cnn1C(C)C` [Compound 305], the IC50 in assay [1] was not above 0.01 µM; on human ALK2 R206H it was 0.1 to 0.5 µM. `O=C(OC1COC1)N1CCN(c2ccnc3[nH]c(-c4csc(C(F)(F)F)n4)cc23)CC1` [Compound 408]: the IC50 in assay [1] was not above 0.01 µM; on human ALK2 R206H, 0.1 to 0.5 µM. On to `CCC(C)CC(=O)N1CCN(c2ccnc3[nH]c(-c4cnn(C)c4)cc23)CC1` (stereo not drawn) [Compound 83], for which the IC50 in assay [1] is 0.01 to 0.05 µM. The same measure, in the same setting: the same measure for `Cc1ccccc1-c1cc2c(N3CCN(C(=O)C4CC4)CC3)ccnc2[nH]1` [Compound 14]: more than 0.05 µM. Turning to `Cc1cccc(-c2cc3c(N4CCN(C(=O)C5CC5)CC4)ccnc3[nH]2)c1` [Compound 15], the IC50 in assay [1] was 0.01 to 0.05 µM.

With `CCc1c(-c2cc3c(N4CCN(C(=O)OC5COC5)CC4)ccnc3[nH]2)cnn1C` [Compound 235], in assay [1], the IC50 was not above 0.01 µM. `CCOC(=O)N1CCN(c2ccnc3[nH]c(-c4cnc(C)nc4)cc23)CC1` [Compound 31]: the half-inhibitory concentration (IC50) in assay [1] lay within 0.01 to 0.05 µM. Same read-out and setting: the same measure for `CC(C)(C)OC(=O)NC1(c2ccc(-c3cc4c(N5CCN(C(=O)C6CC6)CC5)ccnc4[nH]3)cc2)CC1` [Compound 463]: not above 0.01 µM; for `Cn1cc(-c2cc3c(N4CCN(C(=O)C(C)(C)CO)CC4)ccnc3[nH]2)cn1` [Compound 101]: 0.01 to 0.05 µM. On the same count and under the same terms, under `CCOC(=O)N1CCN(c2ccnc3[nH]c(-c4cccc(OC)n4)cc23)CC1` [Compound 85] stands not above 0.01 µM; under `Cn1cc(-c2cc3c(N4CCN(C(=O)CC#N)CC4)ccnc3[nH]2)cn1` [Compound 5], 0.01 to 0.05 µM; under `Cc1nnc(-c2cc3c(N4CCN(C(=O)OC5COC5)CC4)ccnc3[nH]2)o1` [Compound 110], 0.01 to 0.05 µM. Same read-out and setting: under `Cc1c(-c2cc3c(N4CCN(C(=O)C5CC5)CC4)ccnc3[nH]2)cnn1C` [Compound 22] stands 0.01 to 0.05 µM.
